Columns and labels:
Format in all cases: biochemical
AP site-containing DNA = assay: Competition for oxime formation between CCVJ1 and AP site-containing DNA; conditions: up to 500 μM linker, CCVJ1 5 μM, AP DNA 20 μM
Procedure: FIG. 6 provides effect of adding exemplary linker NH2CH2CH2ONH2 to the reaction of Compound (1) (CCVJ1) (5 μM) with AP site containing DNA (20 μM) in buffer.
FIG. 9 provides interaction between Compound (1) (CCVJ1) and DNA. […] (Ex. 485, Em. 538).
FIG. 14 provides effect of competing aldehydes/ketones on maximum fluorescence signal.
Additional experiments were performed to study the origins of this unusually rapid reaction. […] To test the effect that proximity between the alkoxyamine and planar portion of the probe had on oxime kinetics in our probes, probes were synthesized having variable-length linkers (CCVJ2 and CCVJ3) from aldehyde reactive linkers L2 and L3 respectively (FIG. 2A). […] To test the importance of a double-stranded DNA structure to the rate and fluorescence response, an AP-containing single-stranded DNA oligonucleotide was reacted with CCVJ1. At pH 7, CCVJ1 reacted with a second-order rate constant of 33 M^−1s^−1 with the single-stranded substrate, roughly 5-fold slower than a double-stranded hairpin with identical sequence context (FIG. 8).
To further explore the hypothesis that the oxime rate acceleration in these AP-site DNAs was related to base stacking interactions, the fluorescence was measured of CCVJ1 in the presence and absence of a non-lesion containing DNA hairpin.
Since the probe design involves conformational restriction to induce a light-up signal, it was hypothesized that off-target oxime formation with small molecules might induce a relatively small signal relative to DNA, thus providing a measure of selectivity in signaling. […] Another potential aspect is that ketones or aldehydes in the environment might compete with the DNA AP site to react with the aminooxy group, thereby consuming the free probe and reducing the maximum signal. Initial testing of the reactivity of CCVJ1 with AP site-containing DNA in the presence of increasing amounts of competing 2-deoxyribose, the closest small-molecule analogue to the DNA AP site. […] This was repeated this experiment with pyruvic acid, a highly reactive ketone and a common cellular metabolite.

OGG1 = target: T1, OGG1 (Homo sapiens, UniProt O15527); assay: OGG1 activity in MCF7 lysates with CCVJ1; conditions: MCF7 lysate 0.2 mg/mL, 4 h incubation, 25 μM CCVJ1
T1 construct: host or cells: MCF-7 whole cell lysate
T1 sequence (O15527 whole entry): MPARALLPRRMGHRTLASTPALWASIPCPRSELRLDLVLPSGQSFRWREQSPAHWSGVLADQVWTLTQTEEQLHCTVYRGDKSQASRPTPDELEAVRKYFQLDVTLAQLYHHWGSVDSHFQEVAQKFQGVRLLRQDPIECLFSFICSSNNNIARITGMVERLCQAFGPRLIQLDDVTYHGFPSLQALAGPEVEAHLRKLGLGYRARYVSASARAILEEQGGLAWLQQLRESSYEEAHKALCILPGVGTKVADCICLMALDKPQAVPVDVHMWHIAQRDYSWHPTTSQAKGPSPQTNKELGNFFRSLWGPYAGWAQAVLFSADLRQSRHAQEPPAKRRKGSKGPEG
Procedure: FIG. 20 provides fluorescence measurement of MCF7 cell lysates (0.2 mg/mL) with 25 μM Compound (1) (CCVJ1) following a 4-hour incubation with 5 μM of an OGG1 hairpin substrate. The inhibitor SU0268 was used to abrogate OGG1 activity. Error bars represent standard deviation of three replicates.
Encouraged by the results, whether the UBER probe could detect endogenous glycosylase activity was tested from a more challenging target such as OGG1. It is well established that the turnover number of UNG is quite high (˜1-10 s^−1)^5 while the turnover number for many other glycosylases is quite low (0.001-0.1 s^−1). Additionally, most glycosylases, including OGG1, have very low basal expression levels in healthy cells. Given these facts, previous attempts to detect OGG1 activity in lysates have relied on a multistep signal amplification process or extended reaction times (24-48 hrs) to yield signal. […] In this case, the majority of the background signal observed was attributed to intercalation of probe into unreacted hairpin as well as genomic DNA.
(§1) Cell Lysate Experiments: HeLa or MCF-7 whole cell lysates (Santa Cruz Biotech) were used without further preparation. […] Fluorescence intensity was monitored over the course of 4 hours at 37° C.

AP-DNA = assay: Oxime formation kinetics of probe with AP-DNA; conditions: 5 μM probe; for reaction rate of oxime formation relative to CCVJ1 (longer linker): 20 μM AP-DNA, 50 mM Tris pH 7.0; for rate of oxime formation with AP DNA: Oligo 15 20 μM, 37° C.
Procedure: FIG. 3 provides representative plots for calculations of k2 for Compound (1) (CCVJ1) under various buffer conditions with oligo 15. Plots were fitted in OriginPro 8.5 according to the equation derived by Larsen et. al.^5 for second-order rate constants of oxime formation. Apparent second-order rate constants were calculated as the average of three replicates.
FIG. 5A provides fluorescence real-times responses for oxime formation under varied conditions. The Time course of oxime formation between Compound (1) (CCVJ1) (5 μM) and AP-DNA (20 μM) under varied buffer conditions (50 mM) is shown. Ionic strength adjusted to 150 mM with NaCl
Next the reaction rates with CCVJ1 were evaluated. To measure oxime formation kinetics, 5 μM CCVJ1 was reacted with 20 μM AP DNA, and the resulting fluorescence time course was used to determine second-order rate constants by nonlinear regression analysis. Tris buffer was selected since it is commonly used in glycosylase assays with a salt concentration of 100 mM NaCl.
In addition to Tris buffer, oxime formation kinetics were also measured for CCVJ1 with AP DNA in a solution of a catalytic amine buffer previously shown to accelerate oxime formation. To this end, it was employed 50 mM N,N-dimethylethylenediamine (DEDA)•HCl buffered to a pH of 7.0 in place of the above Tris buffers. […] Such rapid rates of oxime formation at neutral pH are unprecedented for unactivated aldehydes.
(§2) In addition to the 5′ and 3′ neighboring bases, studies were done of the effect of the orphaned base Z paired opposite the abasic site on the UBER probe system (FIG. 10, panels C-D). Using the sequence where X=C and Y=G, the identity was varied of the base Z opposite the AP site. […] As a result, the smaller pyrimidine bases yielded a greater fluorescence light up response than the larger purine bases. It was also observed a strong effect by the opposing base on the rate of oxime formation (FIG. 10, panel D). […] This trend is in contrast to the neighboring base effect discussed above in which stronger stacking bases accelerated the rate of oxime formation.
(§3) General procedure for creating AP site DNA: A deoxyuridine containing oligonucleotide (typically 5-20 μM) was treated with 10 U/mL E. coli UDG (New England Biolabs) for 10 minutes at 37° C. in buffer to create AP site containing DNA (see below for MALDI-TOF confirmation). The hairpin was then reacted with probe from a DMSO stock solution (final DMSO concentration <5%).
Fluorescence time courses: Unless otherwise stated, fluorescence time courses were collected on a Fluoroskan Ascent Microplate Fluorometer (Thermo Fisher Scientific) with black, non-binding 384 well plates (Greiner) at a reaction volume of 60 μL with 50 mM Tris buffer pH 7 (ionic strength adjusted to 100 mM with NaCl) with a fluorescein filter set (Ex. 485, Em. 538).

[1] = test system: DNA AP site (AP site containing DNA, oligo 15); assay: Fluorescence response of probe covalently attached to the AP site of a DNA hairpin; conditions: for brightness when bound to the AP site compared to CCVJ1: Oligo 15 DNA
Procedure: FIG. 2B provides emission spectra of oligonucleotide-probe conjugates compared to the emission spectra of the free probe at 2 μM concentration in 50 mM Tris buffer pH 7.0. Excitation was at 470 nm for Compound (1) (also referred to herein as CCVJ1) and 450 nm for Compounds 8 and 9 (also referred to herein as NP1 and NP2) and Compounds 4 and 6 (also referred to herein as BD1 and BD2).
To assess the potential fluorescence response of each probe, a 17mer DNA hairpin containing a single AP site was prepared and reacted it with a 10-fold excess of probe overnight. The subsequent DNA-probe conjugates were precipitated to remove excess fluorophore and full DNA labelling was confirmed by MALDI-TOF mass spectrometry (Table 1). The reacted DNAs were re-suspended in buffer to a concentration of 2 μM and the emission spectra compared with the spectra of the free probes in solution. […] In addition to its large fluorescence response, CCVJ1 is accessed readily through a facile 4-step synthesis and has good spectral overlap with fluorescein. This makes the probe accessible to a wide range of researchers and well suited to the majority of fluorescence-based instruments.
as §2, §3
Procedure for assessing fluorescence response of probes: To assess the fluorescence response of the probes, 25 μM AP site containing DNA (oligo 15) was prepared in a 20 μL solution and allowed to react with 500 μM of each probe overnight. The DNA was then precipitated by the addition of 80 μL 0.33 M sodium acetate and 300 μL ethanol and centrifuged at 21,100 g for 1 hr at 4° C. The resulting DNA pellet was washed twice with 70% EtOH and re-suspended in buffer to a concentration of 2 μM. A portion of the DNA pellet was used for MALDI-TOF analysis. The emission spectra of the probe-oligonucleotide conjugate was measured and compared against a 2 μM solution of the free probe

UNG [2] = target: T2, UNG (Homo sapiens, UniProt P13051); assay: UGI IC50 measurement in UBER probe coupled assay; parameters: purchased OriGene; conditions: UNG 5 nM, UGI 0.3 to 30 nM, initial rates after 25 minute delay, triplicate
T2 sequence (P13051 whole entry): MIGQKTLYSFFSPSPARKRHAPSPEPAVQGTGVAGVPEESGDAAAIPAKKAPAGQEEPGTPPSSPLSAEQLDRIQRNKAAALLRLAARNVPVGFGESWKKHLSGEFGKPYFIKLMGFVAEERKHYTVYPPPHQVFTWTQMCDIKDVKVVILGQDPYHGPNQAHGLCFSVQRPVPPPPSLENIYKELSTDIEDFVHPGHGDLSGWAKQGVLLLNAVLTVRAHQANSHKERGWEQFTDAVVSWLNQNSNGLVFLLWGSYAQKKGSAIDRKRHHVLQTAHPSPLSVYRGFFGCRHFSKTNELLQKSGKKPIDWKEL
Procedure: FIG. 15, panels A-G provides quantitative coupled assays using Compound (1) (CCJV1). Shown are data from reaction of lesion containing substrates with UNG and SMUG1 (5 nM) (panel A), MPG (100 nM) (panel B), NTH1 (500 nM) (panel C), OGG1 (100 nM) in real-time (panel D) with lesion containing DNA (2 μM) and CCVJ1 (20 μM) (panels A, B and D) or lesion containing DNA (60 μM) and CCVJ1 (20 μM) […]. […] Delay time tss of 25 minutes indicated with dotted line.
Based on the results of our neighboring base effect study, several glycosylase oligonucleotide substrates were purchased or prepared in which the identity of the base lesion X was varied to correspond to the known activities of different target glycosylases (FIG. 15, panel E). For these studies human enzymes SMUG1/UNG, OGG1, MPG and NTH1, were chosen which represent a diverse array of human glycosylases. […] Assays were carried out in a 60 μL volume in a 384 well format on a microplate reader using a fluorescein filter set. For each enzyme, it was possible to observe a robust fluorescence signal (FIG. 15, panels A-D).
To test the utility of the probe coupled assay for characterizing inhibitors, it was measured the IC50 value of the UNG inhibitor UGI (FIG. 15, panels F-G). […] In all cases, the z-factor of the assay was calculated to be >0.95, well above the threshold necessary for high throughput screening. […]

UNG [3] = target: T2, UNG; assay: UNG activity in HeLa cell lysate with CCVJ1; parameters: profile endogenous glycosylase activity in cell lysates; host or cells: HeLa whole cell lysate; conditions: 1 U/mL UGI, 0.2 mg/mL HeLa lysate, 5 μM hairpin, 25 μM CCVJ1
Procedure: FIG. 19, panels A-B illustrates applications of an exemplary probe for measuring multiple repair activities in cell lysates. […] The inhibitor UGI was used at a concentration of 1 U/mL to completely abolish UNG activity. […] Activity was quantified by measuring initial rate velocity using 25 μM CCVJ1 with lysate (0.2 mg/mL) and 5 μM of UNG hairpin substrate.
It was first tested whether the UBER probe's ability to report on UNG activity in whole cell lysates using the previously described UNG hairpin substrate (FIG. 19, panel A). […] To confirm that the fluorescence response originated from endogenous UNG activity and not off-target binding with proteins or spontaneous depurination, lysate was treated with CCVJ1 and a control hairpin in which the lesion had been replaced by an undamaged T:A base pair. Importantly, the control hairpin yielded no fluorescence response indicating a low degree of false positive signal. […] CCVJ1 appears to represent the first fluorogenic probe to measure real-time UNG activity in cell lysates.
as §1

NCCON [Compound L1, NH2CH2CH2ONH2]
effect as competing alpha nucleophile on reaction of CCVJ1 with AP DNA (AP site-containing DNA): no effect | effect as competing alpha nucleophile on reaction of CCVJ1 with AP DNA (AP site-containing DNA; listed as NH2CH2CH2ONH2): does not significantly compete with CCVJ1 for oxime formation

NC(=O)c1cccc(-c2ccc(S(=O)(=O)Nc3ccc4c(c3)N(C(=O)C3CC3)CCC4)cc2)c1 [SU0268]
effect of inhibitor on OGG1 repair activity in lysate (OGG1): completely abolished OGG1 repair activity

N#C/C(=C\c1cc2c3c(c1)CCCN3CCC2)C(=O)NCCOCCOCCON [CCVJ3]
reaction rate of oxime formation relative to CCVJ1 (longer linker) (AP-DNA): slowed the reaction rate considerably | brightness when bound to the AP site compared to CCVJ1 [1]: diminished compared to that of CCVJ1

CN(CCON)c1ccc(S(=O)(=O)N(C)C)c2nonc12 [BD2]
rate of oxime formation with AP DNA (AP-DNA): accelerated rates of oxime formation | fluorescence response with AP DNA [1]: substantial fluorescence responses

CN(CCON)c1ccc2c3c(cccc13)C(=O)N(CCC(=O)O)C2=O [NP1]
rate of oxime formation with AP DNA (AP-DNA): accelerated rates of oxime formation | fluorescence response with AP DNA [1]: substantial fluorescence responses

N#C/C(=C\c1cc2c3c(c1)CCCN3CCC2)C(=O)NCCOCCON [CCVJ2]
reaction rate of oxime formation relative to CCVJ1 (longer linker) (AP-DNA): slowed the reaction rate considerably | brightness when bound to the AP site compared to CCVJ1 [1]: diminished compared to that of CCVJ1

CN(C)c1ccc(S(=O)(=O)N(C)CCON)c2nonc12 [BD1]
rate of oxime formation with AP DNA (AP-DNA): accelerated rates of oxime formation | fluorescence response with AP DNA [1]: substantial fluorescence responses

B1: UGI: the UNG inhibitor UGI; tight 1:1 binding stoichiometry; protein inhibitor (protein, UniProt P14739 1-84, looked up)
Uracil-DNA glycosylase …: MTNLSDIIEKETGKQLVIQESILMLPEEVEEVIGNKPESDILVHTAYDESTDENVMLLTSDAPEYKPWALVIQDSNGENKIKML
IC50 (UNG [2]): 7.53 ± 0.44 nM | effect of inhibitor on fluorescence response (UNG activity) in lysate (UNG [3]): completely ablated the fluorescence response
